Results taken from patent US20240216366A1, “PHARMACEUTICAL COMPOSITION COMPRISING A DIPHENYLPYRAZINE DERIVATIVE” (ACTELION PHARMACEUTICALS LTD, priority 2021, published 2024).
Counter-ions that a name gives are not always drawn.

Tests used:
[1] = Feasibility pK rat study of aqueous micro-suspensions (LAI feasibility); type: in vivo; details: IM, 50 mg/kg; for long-acting release profile: 125 mg/mL micro-suspension pH 5
Protocol: For this study, aqueous micro-suspensions of Selexipag, {4-[(5,6-diphenylpyrazin-2-yl)(propan-2-yl)amino]butoxy}acetic acid and calcium; {4-[(5,6-diphenylpyrazin-2-yl)(propan-2-yl)amino]butoxy}acetate were prepared. An overview of the design of the study can be found in Table 1.
Release profiles and mean AUC of the different formulations are depicted in FIG. 1.

[2] = system: patients with pulmonary arterial hypertension; details: phase III clinical trial, versus placebo; cited from earlier work
[3] = Assay/purity of gamma-irradiated drug substance (UPLC); type: physicochemical
Protocol: To evaluate if gamma-irradiation could be used to produce sterile product, different irradiation grades were tested on calcium; {4-[(5,6-diphenylpyrazin-2-yl)(propan-2-yl)amino]butoxy}acetate. In this study, calcium; {4-[(5,6-diphenylpyrazin-2-yl)(propan-2-yl)amino]butoxy}acetate (“COMPOUND”) was irradiated with three different grades (i.e. 5, 25 and 40 kGy). Each irradiation grade was applied on two different COMPOUND vials. One of the two vials for each grade was flushed with nitrogen for 10 seconds. One reference vial containing non-irradiated COMPOUND was included in the assay/purity analysis. All samples were analyzed immediately after irradiation (Table 15) and re-analyzed after 3 months of storage at room temperature.
A second study was conducted on calcium: {4-[(5,6-diphenylpyrazin-2-yl)(propan-2-yl)amino]butoxy}acetate where three different irradiation grades were applied (i.e 5, 25 and 40 kGy).
Analytical Method used: The assay and the impurities of calcium salt of selexipag metabolite before (ref) and after gamma irradiation were analysed using reversed phase chromatography. Sample preparation was done by weighing 50 mg of sample in a 500 mL flask. Approximately 100 mL pH7 phosphate buffer:ACN (50:50) was added whereafter the flask was shaken mechanically for at least 30 minutes until complete dissolution. Dilute to volume with pH7 phosphate buffer:ACN (50:50). The resulting solution was diluted 5× by pipetting 5 mL into a 25 mL flask and diluting with the same dilution solvent. The reference solution is made following the same sample preparation, but using calcium salt of selexipag metabolite (“API”).
Analysis was performed using a Waters UPLC H-Class equipped with DAD detector, column manager and auto-sampler. Separation was done on a Acquity UPLC BEH C18 (2.1×150 mm, 1.7 μm) analytical column using a column temperature of 60° C. DAD detector was set on 230 nm. A 10 mM NH4Ac:ACN:MeOH (950:38:12) solution was used as mobile phase A. A 10 mM NH4Ac:ACN:MeOH (50:710:240) solution was used as mobile phase B. A linear gradient program of 26 minutes was applied starting in which the mobile phase B increases from 5% to 100% in 20 minutes. Hereafter the concentration of mobile phase B was brought back to 5% in 1 minute followed by an equilibration time of 5 minutes. The applied flow rate is 0.30 mL/min. An injection volume of 7 μL was used for the analysis. The assay value of the sample is calculated according following formula:
%=[API peak responsesample×concref×purityref×100%]/[peak responseref×concsample]
The concentration of an impurity is calculated according following formula:
%=[Impurity peak responsesample×concref×purityref×100%]/[peak responseref×concsample]

[4] = Assay/purity of gamma-irradiated drug product (UPLC); type: physicochemical; details: gamma-irradiation 40 and 60 kGy
Description: For this reason, both gamma-irradiation and autoclavation (steam sterilization) of the final drug product need to be investigated. To evaluate the chemical stability of the final drug product during gamma-irradiation, 2 different concepts with calcium; {4-[(5,6-diphenylpyrazin-2-yl)(propan-2-yl)amino]butoxy}acetate having a particle size Dv50 of 8 micrometer were subjected to an irradiation grade of 40 kGy and 60 kGy.
Analytical Method used: The assay and the impurities of the gamma irradiated and non-gamma irradiated (ref) calcium salt of selexipag metabolite suspension (formulation) were analysed using reversed phase chromatography. Sample preparation was done by weighing 0.5 mL suspension in a 500 mL flask. Approximately 200 mL pH7 phosphate buffer:ACN (50:50) was added whereafter the flask was shaken mechanically for at least 30 minutes until complete dissolution. Dilute to volume with pH7 phosphate buffer:ACN (50:50). The resulting solution was diluted 5× by pipetting 5 mL into a 25 mL flask and diluting with the same dilution solvent. […]
Analysis was performed using a Waters UPLC H-Class equipped with DAD detector, column manager and auto-sampler. […] The assay value of the sample is calculated according following formula: […]
The concentration of an impurity is calculated according following formula: […]

[5] = Assay/purity of drug product after autoclavation (steam sterilization); type: physicochemical
Protocol: In parallel with gamma-irradiation of the final drug product (formulated calcium; {4-[(5,6-diphenylpyrazin-2-yl)(propan-2-yl)amino]butoxy}acetate having a particle size Dv50 of 8 micrometer), autoclavation (steam sterilization) was evaluated as well.
Not only the effect upon chemical stability, but upon resuspendability was evaluated as well for the process of autoclavation (steam sterilization). The tested samples of experiment 142 were evaluated for resuspendability right after autoclavation (T0) and after 14 days of storage at 5° C. Time needed for resuspendability was acceptable at both timepoints.

[6] = 5 kGy, 3 months at room temperature
[7] = 5 kGy, 3 months at room temperature, flushed with N2
[8] = 25 kGy, 3 months at room temperature
[9] = 25 kGy, 3 months at room temperature, flushed with N2
[10] = 40 kGy, 3 months at room temperature
[11] = 40 kGy, 3 months at room temperature, flushed with N2
[12] = Reference (non-irradiated), 3 months at room temperature

CC(C)N(CCCCOCC(=O)NS(C)(=O)=O)c1cnc(-c2ccccc2)c(-c2ccccc2)n1 [Selexipag, 2-{4-[(5,6-diphenylpyrazin-2-yl)(propan-2-yl)amino]butoxy}-N-(methanesulfonyl)acetamide, reference compound]
long-acting release profile [1]: did not demonstrate a long-acting release profile
risk of the primary composite end point of death or a complication related to pulmonary arterial hypertension [2]: significantly lower

CC(C)N(CCCCOCC(=O)O)c1cnc(-c2ccccc2)c(-c2ccccc2)n1 [Ca-salt of ACT-333679, calcium; {4-[(5,6-diphenylpyrazin-2-yl)(propan-2-yl)amino]butoxy}acetate]
AUC increases up until ([1]; 125 mg/mL micro-suspension): ≤ 720 h
long-acting release profile up to ([1]; 125 mg/mL micro-suspension): up to 336 hours
plasma concentrations ([1]; 125 mg/mL micro-suspension, FIG. 1): significant lower plasma concentrations compared to both other groups
Assay, % COMPOUND [3, 6]: 94.0%
Impurity, % RRT 1.16* [3, 6]: <0.05%
Impurity, % RRT 1.32* [3, 6]: 0.06%
Impurity, % RRT 1.34* [3, 6]: <0.05%
Assay, % COMPOUND [3, 7]: 94.1%
Impurity, % RRT 1.16* [3, 7]: <0.05%
Impurity, % RRT 1.32* [3, 7]: 0.06%
Impurity, % RRT 1.34* [3, 7]: <0.05%
Assay, % COMPOUND ([3]; 5 kGy, T0): 95.3%
Impurity, % RRT 1.16* ([3]; 5 kGy, T0): 0.05%
Impurity, % RRT 1.32* ([3]; 5 kGy, T0): <0.05%
Impurity, % RRT 1.34* ([3]; 5 kGy, T0): 0.09%
Assay, % COMPOUND ([3]; 5 kGy, T0, flushed with N2): 94.6%
Impurity, % RRT 1.16* ([3]; 5 kGy, T0, flushed with N2): 0.05%
Impurity, % RRT 1.32* ([3]; 5 kGy, T0, flushed with N2): <0.05%
Impurity, % RRT 1.34* ([3]; 5 kGy, T0, flushed with N2): 0.06%
Assay, % COMPOUND [3, 8]: 94.2%
Impurity, % RRT 1.16* [3, 8]: 0.07%
Impurity, % RRT 1.32* [3, 8]: 0.12%
Impurity, % RRT 1.34* [3, 8]: 0.06%
Assay, % COMPOUND [3, 9]: 93.6%
Impurity, % RRT 1.16* [3, 9]: <0.05%
Impurity, % RRT 1.32* [3, 9]: 0.05%
Impurity, % RRT 1.34* [3, 9]: 0.08%
Assay, % COMPOUND ([3]; 25 kGy, T0): 95.1%
Impurity, % RRT 1.16* ([3]; 25 kGy, T0): 0.10%
Impurity, % RRT 1.32* ([3]; 25 kGy, T0): 0.11%
Impurity, % RRT 1.34* ([3]; 25 kGy, T0): 0.06%
Assay, % COMPOUND ([3]; 25 kGy, T0, flushed with N2): 95.6%
Impurity, % RRT 1.16* ([3]; 25 kGy, T0, flushed with N2): <0.05%
Impurity, % RRT 1.32* ([3]; 25 kGy, T0, flushed with N2): 0.13%
Impurity, % RRT 1.34* ([3]; 25 kGy, T0, flushed with N2): 0.09%
Assay, % COMPOUND [3, 10]: 94.3%
Impurity, % RRT 1.16* [3, 10]: 0.08%
Impurity, % RRT 1.32* [3, 10]: 0.15%
Impurity, % RRT 1.34* [3, 10]: 0.10%
Assay, % COMPOUND [3, 11]: 92.9%
Impurity, % RRT 1.16* [3, 11]: 0.08%
Impurity, % RRT 1.32* [3, 11]: 0.14%
Impurity, % RRT 1.34* [3, 11]: 0.10%
Assay, % COMPOUND ([3]; 40 kGy, T0): 94.3%
Impurity, % RRT 1.16* ([3]; 40 kGy, T0): 0.13%
Impurity, % RRT 1.32* ([3]; 40 kGy, T0): 0.14%
Impurity, % RRT 1.34* ([3]; 40 kGy, T0): 0.06%
Assay, % COMPOUND ([3]; 40 kGy, T0, flushed with N2): 94.5%
Impurity, % RRT 1.16* ([3]; 40 kGy, T0, flushed with N2): 0.12%
Impurity, % RRT 1.32* ([3]; 40 kGy, T0, flushed with N2): 0.15%
Impurity, % RRT 1.34* ([3]; 40 kGy, T0, flushed with N2): 0.07%
Assay, % COMPOUND [3, 12]: 94.4%
Impurity, % RRT 1.16* [3, 12]: <0.05%
Impurity, % RRT 1.32* [3, 12]: <0.05%
Impurity, % RRT 1.34* [3, 12]: <0.05%
Assay, % COMPOUND ([3]; Reference (non-irradiated), T0): 95.3%
Impurity, % RRT 1.16* ([3]; Reference (non-irradiated), T0): <0.05%
Impurity, % RRT 1.32* ([3]; Reference (non-irradiated), T0): <0.05%
Impurity, % RRT 1.34* ([3]; Reference (non-irradiated), T0): 0.09%
chemical stability ([3]; drug substance, gamma-irradiation 5, 25, 40 kGy): acceptable
Assay, % COMPOUND ([3]; second study, 5 kGy): 104.4%
Impurity, % RRT 1.15* ([3]; second study, 5 kGy): <0.05%
Impurity, % RRT 1.16* ([3]; second study, 5 kGy): <0.05%
Impurity, % RRT 1.32* ([3]; second study, 5 kGy): <0.05%
Assay, % COMPOUND ([3]; second study, 25 kGy): 104.3%
Impurity, % RRT 1.15* ([3]; second study, 25 kGy): 0.06%
Impurity, % RRT 1.16* ([3]; second study, 25 kGy): 0.09%
Impurity, % RRT 1.32* ([3]; second study, 25 kGy): 0.07%
Assay, % COMPOUND ([3]; second study, 40 kGy): 103.7%
Impurity, % RRT 1.15* ([3]; second study, 40 kGy): 0.06%
Impurity, % RRT 1.16* ([3]; second study, 40 kGy): 0.12%
Impurity, % RRT 1.32* ([3]; second study, 40 kGy): 0.10%
chemical stability in the drug product [4]: acceptable
chemical stability in the drug product [5]: chemically stable

CC(C)N(CCCCOCC(=O)O)c1cnc(-c2ccccc2)c(-c2ccccc2)n1 [ACT-333679, 2-(4-((5,6-diphenylpyrazin-2-yl)(isopropyl)amino)butoxy)acetic acid, reference compound]
long-acting release profile [1]: did not demonstrate a long-acting release profile
